Test system: Hbb^th3/+ mice
Assay: Erythrocyte membrane-associated α-globin detection and quantification (TAU gel electrophoresis, densitometry)
Assay type: in vivo, mouse
Conditions: Hbb^th3/+ animals vs vehicle-treated; TAU gel electrophoresis (FIG. 1)
Excerpt: Fresh EDTA-blood samples of mice from each group were pooled (blood from 2 mice/pool), lysed, and membrane lipids were extracted, as previously described (Sorensen S, Rubin E, Polster H, Mohandas N, Schrier S. “The role of membrane skeletal-associated alpha-globin in the pathophysiology of beta-thalassemia.” Blood. 1990 Mar. 15; 75(6):1333-6). The insoluble membrane fraction was separated by electrophoresis on triton acetic acid urea (TAU) gels and visualized by Coomassie staining (Alter B et al, Br J Haematol 44:527, 1980). The signal intensity of the α-globin bands was quantified by densitometry using LAS-4000 Image Analyzer with Multi Gauge v.3 software (GE Healthcare Life Sciences).
Blood samples are washed three times with ice cold DPBS in the presence of 1 mM EDTA and lysed in an ice-cold hypotonic lysis buffer (5 mM sodium phosphate, pH 7.6 containing Complete Ultra protease inhibitors, Roche). The soluble Hb is collected to serve as standard on the gel. The erythrocyte ghosts are further washed three times by resuspending in hypotonic lysis buffer and centrifugation at 21'000×g. Membrane lipids are extracted in 50 mM sodium borate pH 8, 1 mM EDTA, 0.5% Triton X-100 (Sigma-Aldrich) and protease inhibitors. […]

In the case of `O=C(NCc1ncccc1F)c1coc(CCNCCc2nc3ccccc3[nH]2)n1` [Fpn127], the “levels of toxic α-globin/heme aggregates in RBC membrane skeleton preparations” value is reported as “significant dose-dependent decrease”.
